For 47 compounds, emission maximum results are on record in the Deep4Chem optical property database.

A short description of the data set: solvent given as SMILES.

The structures appear in SMILES notation.

On to `CCn1c2cc(OC)ccc2c2c3nsnc3c3c4ccc(OC)cc4n(CC)c3c21`, for which the emission maximum reads like this: (in CN(C)C=O) 557 nm; (in Cc1ccccc1) 517 nm; (in ClCCl) 553 nm.
`Cc1cc(-c2ccc(-c3nc4ccccc4[nH]3)cc2)c(C)cc1-c1ccc(-c2nc3ccccc3[nH]2)cc1` came in with an emission maximum (in CN(C)C=O) of 401 nm.
Consider `CC[n+]1nc2cc3c4c(c2c2cc(C)ccc21)CCCN4CCC3`, for which, for the setting “in O”, the emission maximum is on record as 571 nm.
As for `Cc1cc(C2=Cc3cccc[n+]3[B-](F)(F)O2)ccc1N(C)C`, the emission maximum (in ClC(Cl)Cl) was determined as 491 nm.
For the compound `c1ccc(C2c3ccccc3-c3cc4c(cc32)-c2ccccc2C4c2ccccc2)cc1` (stereo not drawn), the emission maximum (in ClCCl) was 360 nm.
For the compound `CC1(C)CC(NCc2ccc3ccc4cccc5ccc2c3c45)CC(C)(C)N1`, the emission maximum (in C1CCCCC1) was determined as 375 nm, the emission maximum (in CC#N) is on record as 375 nm, the emission maximum (in CO) is 375 nm and the emission maximum (in ClC(Cl)Cl) was 396 nm.
For `CCOC(=O)/C=C/c1cc2ccc(O)cc2oc1=O`, the emission maximum (in CCO) amounted to 430 nm.
Regarding `CC(C)(C)c1cc(-c2c3cc(c(-c4cc(C(C)(C)C)cc(C(C)(C)C)c4)c4ccc([nH]4)c(-c4ccc(Br)cc4)c4nc(c(-c5ccc(Br)cc5)c5ccc2[nH]5)C=C4)N=C3)cc(C(C)(C)C)c1`, the emission maximum (in ClCCl) was found to be 741 nm.
Still for that read-out and setting: the result for `CC1=C(Br)C(C)=[N+]2C1=C(c1c(-c3ccccn3)nc3ccccn13)c1c(C)c(Br)c(C)n1[B-]2(F)F` reads 571 nm.
In the case of `CCCCN(c1ccccc1)c1ccc2c(c1)C(CC)(CC)c1cc(/C=C/c3ccc(/C=C(\C#N)C(=O)O)s3)ccc1-2`, the emission maximum is, setting by setting: (in C1CCOC1) 622 nm; (in C1COCCO1) 621 nm; (in CC#N) 518 nm; (in CC(C)=O) 576 nm; (in CCOC(C)=O) 590 nm; (in CN(C)C=O) 605 nm. For the same compound, the emission maximum runs as follows: (in CS(C)=O) 520 nm; (in ClCCl) 595 nm.
As to `c1ccc(-c2nc(-c3ccccc3)nc(-c3ccc(-n4c5ccccc5c5c6oc7ccccc7c6ccc54)cc3)n2)cc1`, the emission maximum came to 393.5 nm (in C1CCCCC1), 473.68 nm (in C1CCOC1), 430.34 nm (in Cc1ccccc1) and 429.14 nm (in O=P(c1ccccc1)(c1ccccc1)c1ccccc1Oc1ccccc1P(=O)(c1ccccc1)c1ccccc1).
Under “in ClCCl”, `COc1ccc(-c2cc(-c3ccccc3)nn2C)cc1` yielded an emission maximum of 333 nm.
`CN(C)c1ccc(-c2nc(-c3ccc(N(C)C)cc3)c3ccccc3n2)cc1` came in with an emission maximum (in C1CCCCC1) of 436 nm; an emission maximum (in C1CCOC1) of 528 nm; an emission maximum (in CC#N) of 571 nm; an emission maximum (in CS(C)=O) of 575 nm; an emission maximum (in ClCCl) of 530 nm.
Under “in ClC(Cl)Cl”, `Cc1cc(C)c(C2=C3C=CC(c4ccccc4O)=[N+]3[B-]3(c4ccccc4)Oc4ccccc4-c4ccc2n43)c(C)c1` (stereo not drawn) registered an emission maximum of 614 nm.
Compound `N#Cc1c(N2CCCC2)cc(-c2ccccc2)c2c1-c1cccc3cccc-2c13` yielded an emission maximum (in O) of 550 nm.
Where the note is “in ClCCl”, `c1ccc(N(c2ccccc2)c2ccc(-c3ccncn3)cc2)cc1` yielded an emission maximum of 482 nm.
As to `Cc1ccc(-n2c(-c3ccccc3NS(=O)(=O)c3ccc(C)cc3)nc3c4ccccc4c4ccccc4c32)cc1`, the emission maximum (in Cc1ccccc1) is listed as 365 nm.
Under “in ClC(Cl)Cl”, `CCCCCCCCCCCCOc1cc2c3cc(OCCCCCCCCCCCC)c(OCCCCCCCCCCCC)cc3c3c(cc(OCCCCCCCCCCCC)c4nc5cc(C#Cc6ccc(OCCC(C)CCCC(C)C)cc6)c(C#Cc6ccc(OCCC(C)CCCC(C)C)cc6)cc5nc43)c2cc1OCCCCCCCCCCCC` (stereo not drawn) showed an emission maximum of 660 nm.
Turning to `c12c3c4c5c1c1c6c7c2c2c8c3c3c9c4c4c%10c5c5c1c1c6c6c%11c%12c%13c%14c%15c%16c%17c%14c%14c%18c%13c%11c1c1c5c%10c5c(c%14c%10c%17c%11c%13c%16c%14c%16c%15c%12c%12c%16c(c2c7c%126)c2c8c3c(c%13c%142)c2c9c4c5c%10c%112)c%181`, the emission maximum (in CC1CCCCC1) amounted to 650 nm.
Compound `O=c1c2cc(C#Cc3ccc(Cl)cc3)ccc2nc2ccc(C#Cc3ccc(Cl)cc3)cn12` had an emission maximum (in ClCCl) of 478 nm.
Turning to `CCCCCOc1cc2oc(=O)c3c4occc4c4ccc5cccc6c(c1)c2c3c4c56`, the emission maximum (in C1CCOC1) turned out to be 433 nm.
Regarding `F[B-]1(F)n2c(ccc2N2CCOCC2)C(c2ccccc2)=C2C=CC(N3CCOCC3)=[N+]21`, the emission maximum reads like this: (in CC#N) 600 nm; (in CCCCCC) 595 nm; (in CCOC(C)=O) 597 nm; (in CO) 594 nm; (in ClCCl) 598 nm.
Consider `COc1cc(C2=c3c(c4ccc(C(C)(C)C)cc4c4cc(C(C)(C)C)ccc34)=[N+]3C2=Nc2c(-c4cc(OC)c(OC)c(OC)c4)c4c5ccc(C(C)(C)C)cc5c5cc(C(C)(C)C)ccc5c4n2[B-]3(F)F)cc(OC)c1OC`, for which the emission maximum (in Cc1ccccc1) came to 816 nm.
Consider `CCCCCCCCN1c2ccc(C#Cc3ccc(F)cc3)cc2Sc2cc(C=O)ccc21`, for which the emission maximum runs as follows: (in C1CCOC1) 513 nm; (in CC#N) 538 nm; (in CCCCCC) 488 nm; (in CO) 466 nm; (in CS(C)=O) 542 nm; (in Cc1ccccc1) 507 nm. In addition, the emission maximum (in ClC(Cl)Cl) turned out to be 539 nm.
Under “in CS(C)=O”, `COc1cc(-c2nc3sc4ccccc4c3s2)cc(OC)c1OC` gave an emission maximum of 424 nm.
The compound `N#Cc1c(-n2c3ccccc3c3cc(I)ccc32)c(C#N)c(-n2c3ccccc3c3cc(I)ccc32)c(-n2c3ccccc3c3cc(I)ccc32)c1-n1c2ccccc2c2cc(I)ccc21` came in with an emission maximum (in Cc1ccccc1) of 518 nm.
The compound `CCCCc1cc(CCCC)c2ccc3c(CCCC)cc(CCCC)c4ccc1c2c43` yielded an emission maximum (in CCCCCC) of 388 nm, an emission maximum (in CO) of 388 nm and an emission maximum (in ClCCl) of 389 nm.
For the setting “in CN(C)C=O”, `Cc1ccc2nc(-c3cccc4nc(C)[nH]c(=O)c34)[nH]c2c1` came in with an emission maximum of 431 nm.
The compound `c1ccc(N(c2ccccc2)c2ccc(-c3ncc(-c4ccncc4)s3)cc2)cc1` had an emission maximum (in CO) of 534 nm.
Take `COC(=O)[C@H](Cc1ccccc1)Nc1c(C(C)=O)c(=O)oc2cc(N(C)C)ccc12`: the emission maximum (in ClCCl) is recorded as 449 nm.
As to `CC1(C)c2ccccc2N(c2ccc(-c3nc(-c4ccccc4)cc(-c4ccccc4)n3)cc2)c2ccccc21`, the emission maximum (in Cc1ccccc1) is recorded as 454.83 nm.
As to `CCN(CC)c1ccc2cc(-c3nc4c5ccccc5c5ccccc5c4n3-c3ccc(C(C)(C)C)cc3)c(=O)oc2c1`, the emission maximum (in ClCCl) is 492 nm.
For `Cc1ccc(-c2ccc(/C=C/c3cccs3)cn2)nc1`, for the setting “in CC#N”, the emission maximum was 422 nm.
For `CN1CCN(CCCN2c3ccccc3Sc3ccc(C(F)(F)F)cc32)CC1`, the emission maximum (in CC#N) was 470 nm, the emission maximum (in CO) is listed as 467 nm and the emission maximum (in O) came to 482 nm.
Where the note is “in C1COCCO1”, `COc1ccc(C2=N/C(=C\c3ccccc3)C(=O)N2)cc1OC` yielded an emission maximum of 455 nm.
As for `CCCCCCN(CCCCCC)c1ccc(C#Cc2ccc(C(F)(F)F)cc2)cc1`, the emission maximum came to 456 nm (in CO) and 440 nm (in ClCCl).
Compound `CC(C)c1cc(N(C)C)c(C#N)c2c1-c1cccc3cccc-2c13` showed an emission maximum (in O) of 554 nm.
Regarding `N#CC(C#N)=Cc1ccc(-c2ccc(O)c(-c3nc4ccccc4s3)c2)o1`, the emission maximum runs as follows: (in CCO) 632 nm; (in ClCCl) 612 nm; (in O) 652 nm.
`CCC1(CC)c2cc(N(c3ccccc3)c3ccccc3)ccc2-c2c1c1c(c3c2C(CC)(CC)c2cc(N(c4ccccc4)c4ccccc4)ccc2-3)C(CC)(CC)c2cc(N(c3ccccc3)c3ccccc3)ccc2-1`: the emission maximum (in C1CCOC1) was 390 nm; the emission maximum (in CC#N) worked out at 404 nm; the emission maximum (in CC(C)=O) is on record as 395 nm; the emission maximum (in CCCCCC) turned out to be 382 nm; the emission maximum (in Cc1ccccc1) is listed as 386 nm.
Where the note is “in O”, `CC[n+]1c(-c2ccccc2)c2cc(N)ccc2c2ccc(NC(N)=[NH2+])cc21` displayed an emission maximum of 590 nm.
For `N#Cc1cccc2c(N)c(-c3nn([C@H]4C[C@H](O)[C@@H](CO)O4)c4ncnc(N)c34)ccc12`, the emission maximum stood at 488 nm (in C1COCCO1); 513 nm (in CC#N); 514 nm (in CC(C)O); 520 nm (in CCO); 494 nm (in CCOC(C)=O); 524 nm (in CN(C)C=O). In addition, the emission maximum (in CO) turned out to be 527 nm, the emission maximum (in CS(C)=O) was found to be 534 nm, the emission maximum (in OCC(O)CO) is on record as 522 nm and the emission maximum (in OCCO) is reported as 529 nm.
As for `CC1=[N+]2C(=C(c3ccc(C#N)cc3)c3ccc(C)n3[B-]2(F)F)C=C1`, the emission maximum is, setting by setting: (in C1CCCCC1) 539 nm; (in C1CCOC1) 540 nm; (in CC#N) 537 nm; (in CCOC(C)=O) 537 nm; (in CO) 538 nm; (in Cc1ccccc1) 543 nm. For the setting “in ClC(Cl)Cl”, this compound yielded an emission maximum of 543 nm.
As to `O=C(O)c1ccc(C2=C(/C=C/c3[se]c4ccccc4[n+]3CCCCS(=O)(=O)[O-])CCC/C2=C\C=C2/[Se]c3ccccc3N2CCCCS(=O)(=O)[O-])cc1`, the emission maximum (in CO) is listed as 813 nm.
In turn, `CC[N+]1(CC)CN2C(=N1)C(C(=O)O)=Cc1cc(SC)ccc12` had an emission maximum (in O) of 515 nm.
Consider `C(#Cc1cc(C#Cc2ccccc2)c(C#Cc2ccccc2)c(C#Cc2ccccc2)c1C#Cc1ccccc1)c1ccccc1`, for which the emission maximum (in ClCCl) was 424 nm.
As for `C1=Cc2nc1c(-c1cccs1)c1ccc([nH]1)c(-c1cccs1)c1nc(c(-c3cccs3)c3ccc([nH]3)c2-c2cccs2)C=C1`, the emission maximum was found to be 665 nm (in CN(C)C=O) and 670 nm (in ClCCl).
Where the note is “in Cc1ccccc1”, `COc1cc(OC)cc(C2=C(c3cc(OC)c(OC)c(OC)c3)C3=Nc4c(-c5cc(OC)c(OC)c(OC)c5)c(-c5cc(OC)cc(OC)c5)c(-c5ccc(C(C)(C)C)cc5)n4[B-](F)(F)[N+]3=C2c2ccc(C(C)(C)C)cc2)c1` showed an emission maximum of 721 nm.
